Assay results reported in patent publication US20040120949A1, “Compositions and methods for treating cancer using cytotoxic CD44 antibody immunoconjugates and radiotherapy” (Boehringer Ingelheim International GmbH, priority 2002, published 2004).
Where “and” joins values, the source holds several entries; their conditions need not be identical. Identical values can stand only once.

Tests used:
cells in vitro = settings: free drug; cited from earlier work
[1] = test system: antigen-positive FaDu cells; assay: In vitro binding to FaDu cells by FACS; settings: on ice 1 hour, FITC-labeled anti-human IgG, read-out: apparent KD
Experimental: The binding of BIWA 4 antibody and BIWI 1 conjugate to antigen-positive FaDu cells was determined. Cells (1−2×10^−5) were incubated in 96-well plates with varying concentrations of antibody or conjugate on ice for 1 hour. The test article was washed from the plate and FITC-labeled anti-human IgG was added and the incubation on ice was continued in the dark for 1 hour. After washing, the cells were fixed with 1% paraformaldehyde and analyzed on a fluorescence activated cell sorter (FACS).

human FaDu SCC = assay: Tumor growth delay and local control of FaDu tumors in nude mice, drug alone or with fractionated irradiation; format: in vivo, NMRI (nu/nu) mice; settings: for Growth delay to 5 times the starting volume (tν5) / Growth delay to 10 times the starting volume (tV10): median
Experimental: (§1) BIWI 1, BIWA 4 and phosphate buffered saline (PBS) were applied intravenously (i.v.) in one of the tail veins. BIWI 1 was applied in doses of 50 μg and 100 μg DM1/kg body weight (b.w.)/d. Control animals were treated either with BIWA 4 (antibody control, 7 mg/kg b. w./d) or PBS.
(§2) Animals: The experiments were performed using 7-14 week old male and female NMRI (nu/nu) mice from the specific pathogen-free animal breeding facility of the Experimental Center of the Medical Faculty of the University of Dresden. The animal facilities and the experiments were approved according to the German animal welfare regulations. The microbiological status of the animals was regularly checked by the veterinarians of the facility. The animal rooms provided day light plus a 12 h light-12 h dark electric cycle (light-on time 07.00 a.m.) and a constant temperature of 26° C. and relative humidity of 50-60%. The animals were fed a commercial laboratory animal diet and water ad libitum. To immunosuppress the nude mice further, they were whole-body irradiated 2 days before tumor transplantation with 4 Gy using 200 kV X-rays (0.5 mm Cu) at a dose rate of about 1 Gy/min.
Tumor: FaDu is an established human hypopharyngeal squamous cell carcinoma line, kept in high passage by the American Type Culture Collection (Rockville, Md.). In nude mice FaDu grows as an undifferentiated carcinoma with a volume doubling time (VDT) between 100 mm^3 and 400 mm^3 of about 4 days. […] For the experiments small tumor pieces were transplanted subcutaneously (s.c.) into the right hindleg of anaesthetised mice.
(§3) Combination of BIWI 1 with fractionated irradiation: Local irradiations were given under ambient conditions without anaesthesia to air breathing animals (200 kV X-rays, 0.5 mm Cu, at a dose rate of 1.1 Gy/min). Up to five animals were irradiated simultaneously in specially designed jigs. For the treatments, the mice were immobilised in a plastic tube fixed on a lucite plate. The tumor-bearing leg was held positioned in the irradiation field by a foot-holder distal to the tumor. Tumor volume at the start of irradiation were around 100 mm^3. Tumors were irradiated with 5 fractions of 4 Gy in 5 days. The animals were randomized over the experimental matrix in groups of 5, aiming for about 15 animals (range 14 to 15 animals) for each treatment group. Irradiation protocols were started every second day. Animals received either BIWI 1 (50 μg DM1/kg/d), BIWI 1 (100 μg DM1/kg/d), BIWA 4 (7 mg/kg/d) or PBS two hours after each irradiation for 5 consecutive days. The report includes data obtained from a total of 59 irradiated tumors. In addition, 57 unirradiated FaDu tumors were treated with BIWI 1 (50 μg/kg/d), BIWI 1 (100 μg/kg/d), BIWA 4 (7 mg/kg/d) or PBS for 5 consecutive days.
Determinations of tumor volume and tumor growth delay: Animals were observed until the mean diameter of the untreated or recurrent tumors exceeded 12-15 mm, until death or until day 120 after end of treatment. Animals that appeared to suffer were killed before reaching these endpoints. Tumor diameters were measured every second day. Tumor volumes were determined by the formula of a rotational ellipsoid π/6×a×b^2, where a is the longest and b is the perpendicular shorter tumor axis. Conversion of tumor volumes to tumor mass (mg) was performed by a calibration curve based on excision weights. Tumor growth delay was determined from individual growth curves as the time that a regrowing tumor needed to reach 5 and 10 times the start volume (tv5, tv10).
Statistics: Medians and 95% confidence intervals (CI) of the tumor growth delay were calculated according to Sachs (Angewandte Statistik, 7. Aufl., Springer 1992). Experimental groups were compared using the Mann-Whitney-U test and a commercial software package (SPSS for Windows 9.0, SPSS Inc., 1999).

[2] = Biodistribution and tumor uptake in vivo
[3] = Tolerability in tumor-bearing nude mice; format: in vivo
Experimental: as §1, §2, §3

CD44v6 = assay: Antigen binding affinity of humanised VFF-18 versions; parameters: species or system human
[4] = target: CD44v6 on antigen-positive FaDu cells (human) (UniProt P16070); assay: flow cytometry (FACS) on antigen-positive FaDu cells, FITC-labeled anti-human IgG detection; apparent KD
[5] = BIWA 4 7 mg/kg/d + fractionated irradiation
[6] = BIWA 4 7 mg/kg/d i.v. x5 days, no irradiation
[7] = BIWA 4 7 mg/kg/d x5 days + fRT (5x4 Gy)
[8] = 50 μg DM1/kg b.w./d alone, no irradiation
[9] = 50 μg DM1/kg/d + fractionated irradiation
[10] = 50 ug DM1/kg/d i.v. x5 days, no irradiation
[11] = 50 ug DM1/kg/d x5 days + fRT (5x4 Gy)
[12] = 100 ug DM1/kg/d i.v. x5 days, no irradiation
[13] = 100 ug DM1/kg/d x5 days + fRT (5x4 Gy)

Chain of CD44v6 (P16070 386-428 limits assumed): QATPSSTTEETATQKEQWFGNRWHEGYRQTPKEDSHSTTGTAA

In the case of `COc1cc2cc(c1Cl)N(C)C(=O)C[C@H](OC(=O)[C@H](C)N(C)C(=O)CCS)[C@]1(C)O[C@H]1[C@H](C)[C@@H]1C[C@@](O)(NC(=O)O1)[C@H](OC)/C=C/C=C(\C)C2` [DM1, N^2′-deacetyl-N^2′-(3-mercapto-1-oxopropyl)-Maytansine], the “concentration toxic to cells in vitro” value (cells in vitro) is listed as “approximately 10^−10 M”.

For “BIWA 4: Humanised version of antibody VFF-18, CD44v6 specific; light chains SEQ ID NO:4, heavy chains SEQ ID NO:6”, the Kd [1] was 1 nM, the “Local tumor control rate at day 120” value (human FaDu SCC; [5]) was 0/14 and the “estimated dose modifying factor” value (human FaDu SCC; [5]) was 1.2. The “Growth delay compared with irradiated controls” value (human FaDu SCC; BIWA 4 7 mg/kg/d + irradiation 20 Gy in 5 fractions) was “slightly but significant longer growth delay”, the “Tumor growth compared with control tumors treated with PBS” value (human FaDu SCC; BIWA 4 7 mg/kg/d alone, no irradiation) was “did not alter tumor growth” and the “Growth delay to 5 times the starting volume (tν5)” value (from here on “Growth delay … (tν5)”) (human FaDu SCC; [6]) was 10,8 d. For the same molecule, the “Growth delay to 10 times the starting volume (tV10)” value (“Growth delay … (tV10)” for short) (human FaDu SCC; [6]) was 16.0 days, the “Growth delay … (tν5)” value (human FaDu SCC; [7]) was 30.5 days and the “Growth delay … (tV10)” value (human FaDu SCC; [7]) was 40.0 days. For the same molecule, the “Biodistribution and tumor uptake in vivo” value [2] was “very favorable biodistribution and tumor uptake in vivo”, the “Toxicity observed after application” value ([3]; i.v. x5 days) was “No toxicity was observed” and the “Body weight during the treatment” value ([3]; irradiated and unirradiated animals, versus PBS group) was “minor and temporary changes without significant differences”. For the same molecule, the “Antigen binding affinity (comparative)” value (CD44v6) was “significantly lower antigen binding affinity as its parent antibody VFF-18”.

In the case of BIWI 1, the Kd [1] is reported as 1.8 nM, the “tv5 and tv10 compared with irradiated tumors which received PBS or BIWA 4” value (human FaDu SCC; 50 μg DM1/kg b.w./d + irradiation 20 Gy in 5 fractions) is reported as “clear-cut longer” and the “tv5 compared with controls” value (human FaDu SCC; [8]) is reported as “did not prolong”. The “tv10 compared with controls” value (human FaDu SCC; [8]) was “slightly but significant longer”, the “Effect of combined treatment with fractionated irradiation (radiosensitizing efficacy)” value (human FaDu SCC; [9]) was “supra-additive” and the “Local tumor control rate at day 120” value (human FaDu SCC; [9]) was 7 out of 15. For the same molecule, the “estimated dose modifying factor” value (human FaDu SCC; [9]) was 4.1, the “Local tumor control rate at day 120” value (human FaDu SCC; 50 μg DM1/kg/d + fractionated irradiation, listed as BIWI1) was 7/15 and the “Growth delay … (tν5)” value (human FaDu SCC; [10]) was 13.5 days. For the same molecule, the “Growth delay … (tV10)” value (human FaDu SCC; [10]) was 26.0 days, the “Growth delay … (tν5)” value (human FaDu SCC; [11]) was 107.5 days and the “Growth delay … (tV10)” value (human FaDu SCC; [11]) was over 120 days. For the same molecule, the “tv5 and tv10 compared with irradiated tumors which received PBS or BIWA 4” value (human FaDu SCC; 100 μg DM1/kg b.w./d + irradiation 20 Gy in 5 fractions) was “significant longer”, the “Tv5 and tv10 compared to controls” value (human FaDu SCC; 100 μg DM1/kg b.w./d alone, no irradiation) was “substantially and significantly prolonged” and the “estimated dose modifying factor” value (human FaDu SCC; 100 μg DM1/kg/d + fractionated irradiation) was over 4.5. For the same molecule, the “Local tumor control rate at day 120” value (human FaDu SCC; 100 μg DM1/kg/d + fractionated irradiation, 4 further controlled animals censored earlier) was 6 out of 15 and 6/15, the “Growth delay … (tν5)” value (human FaDu SCC; [12]) was 27.5 days and the “Growth delay … (tV10)” value (human FaDu SCC; [12]) was 33.5 days. For the same molecule, the “Growth delay … (tν5)” value (human FaDu SCC; [13]) was over 120 days, the “Growth delay … (tV10)” value (human FaDu SCC; [13]) was over 120 days and the “estimated kill of clonogenic FaDu cells” value (human FaDu SCC; 5x 100 μg DM1/kg/d alone) was “at least two logs”. For the same molecule, the “Toxicity observed after application” value ([3]; i.v. x5 days) was “No toxicity was observed”, the Tolerability ([3]; i.v. x5 days, irradiated and unirradiated animals) was “well tolerated” and the “Body weight during the treatment” value ([3]; mouse, in vivo) was “minor and temporary changes without significant differences”.

B1: BIWA 4 (antibody, human IgG1, kappa, V domains shown)
VH: EVQLVESGGGLVKPGGSLRLSCAASGFTFSSYDMSWVRQAPGKGLEWVSTISSGGSYTYYLDSIKGRFTISRDNAKNSLYLQMNSLRAEDTAVYYCARQGLDYWGRGTLVTVSS
VL: EIVLTQSPATLSLSPGERATLSCSASSSINYIYWYQQKPGQAPRLLIYLTSNLASGVPARFSGSGSGTDFTLTISSLEPEDFAVYYCLQWSSNPLTFGGGTKVEIKR
B1 showed a Kd [4] of 1 nM.

B2: BIWI 1 (antibody, V domains shown)
VH: EVQLVESGGGLVKPGGSLRLSCAASGFTFSSYDMSWVRQAPGKGLEWVSTISSGGSYTYYLDSIKGRFTISRDNAKNSLYLQMNSLRAEDTAVYYCARQGLDYWGRGTLVTVSS
VL: EIVLTQSPATLSLSPGERATLSCSASSSINYIYWYQQKPGQAPRLLIYLTSNLASGVPARFSGSGSGTDFTLTISSLEPEDFAVYYCLQWSSNPLTFGGGTKVEIKR
modifications: maytansinoid DM1 linked by a disulfide bond through the SPP-derived thiopentanoate linker to amino functions of the antibody; DM1/MAb ratio 3.1 (average for the whole antibody; sites not stated)
B2 showed a Kd [4] of 1.8 nM.
